In patent US6869933B2, “HIV-specific CTL inducing peptides and medicaments for preventing or treating AIDS comprising the peptides” (Ajinomoto Co., Inc., priority 1999, dated 2005):
Marks after values point to notes of the source that are not given here.

Columns and labels:
[1] = tested on: HLA-A*1101 positive Tm EBV transformed cells pulsed with the peptide; assay: Induction of specific CTL after a single stimulation with the peptides in PBMC from HIV-subtype E-seropositive patients carrying HLA-A11; details: for patients from whom the specific CTL could be induced: HIV-1 subtype E infected patients carrying HLA-A11
[2] = tested on: HLA-A*1101 positive Tm EBV transformed cells pulsed with the peptide; assay: Induction of specific CTL by a single stimulation with the peptides in PBL from HIV-seropositive patients carrying HLA-A11 (51Cr release CTL assay); details: for patients in whom peptide-specific CTL activity was induced: six HIV-1 seropositive patients carrying HLA-A*1101
[3] = tested on: HLA-A*1101 positive Tm EBV transformed cells pulsed with the peptide; assay: Induction of specific CTL after a single stimulation with the peptides in PBMC from HIV-subtype B-seropositive patients carrying HLA-A11
[4] = tested on: C1R-A*1101 cells infected with vaccinia virus expressing HIV-1 Pol protein or Env protein; assay type: cell-based, human
[5] = patient TT-005, effector:target 40:1, peptide 1 μM
[6] = patient TT-007, effector:target 40:1, peptide 1 μM
[7] = patient TT-008, effector:target 40:1, peptide 1 μM
[8] = patient TT-009, effector:target 40:1, peptide 1 μM
[9] = patient TU-002, effector:target 40:1, peptide 1 μM
[10] = patient TU-003, effector:target 40:1, peptide 1 μM
[11] = patient TU-007, effector:target 40:1, peptide 1 μM
[12] = patient five, effector:target 5:1, peptide 1 μM
[13] = patient five, effector:target 40:1, peptide 1 μM
[14] = patient four, effector:target 5:1, peptide 1 μM
[15] = patient four, effector:target 40:1, peptide 1 μM
[16] = patient one, effector:target 5:1, peptide 1 μM
[17] = patient one, effector:target 40:1, peptide 1 μM
[18] = patient six, effector:target 5:1, peptide 1 μM
[19] = patient six, effector:target 40:1, peptide 1 μM
[20] = patient three, effector:target 5:1, peptide 1 μM
[21] = patient three, effector:target 40:1, peptide 1 μM
[22] = patient two, effector:target 5:1, peptide 1 μM
[23] = patient two, effector:target 40:1, peptide 1 μM
[24] = patient KI-005, effector:target 40:1, peptide 1 μM
[25] = patient KI-015, effector:target 40:1, peptide 1 μM
[26] = patient KI-030, effector:target 40:1, peptide 1 μM
[27] = patient KI-035, effector:target 40:1, peptide 1 μM
[28] = patient KI-036, effector:target 40:1, peptide 1 μM

Sequence	patients from whom the specific CTL could be induced [1]	relative cell lysis (%) [1, 5]	relative cell lysis (%) [1, 6] [%]	relative cell lysis (%) [1, 7] [%]	relative cell lysis (%) [1, 8] [%]	relative cell lysis (%) [1, 9] [%]	relative cell lysis (%) [1, 10] [%]	relative cell lysis (%) [2, 12] [%]	relative cell lysis (%) [2, 13] [%]	relative cell lysis (%) [2, 14] [%]	relative cell lysis (%) [2, 15]	relative cell lysis (%) [2, 16] [%]	relative cell lysis (%) [2, 17] [%]	relative cell lysis (%) [2, 18] [%]	relative cell lysis (%) [2, 19] [%]	relative cell lysis (%) [2, 20] [%]	relative cell lysis (%) [2, 21] [%]	relative cell lysis (%) [2, 22] [%]	relative cell lysis (%) [2, 23] [%]	patients in whom peptide-specific CTL activity was induced [2]	also measured
AFDLSFFLK (Human immunodeficiency virus type 1) [Nef 84-9-2F6F]	six of seven	−1.3%	24.6	75.5	76.5	15.4	41.2	–	–	–	–	–	–	–	–	–	–	–	–	–	relative cell lysis (%) [1, 11]: 64.2%
AIFQSSMTK (Human immunodeficiency virus type 1) [Pol313-321]	–	–	–	–	–	–	–	−3.7	2.8	26.8	53.5%	3.7	13.6	1.1	0.7	2.3	−2.4	8.2	31.1	three patients	–
ALDLSHFLK (Human immunodeficiency virus type 1) [Nef 84-9-2L]	–	–	–	–	–	–	–	–	–	–	–	–	–	–	–	–	–	–	–	–	patients from whom the specific CTL could be induced ([3]; HIV-1 subtype B infected patients carrying HLA-A11): three of five; relative cell lysis (%) [3, 24]: 68.3%; relative cell lysis (%) [3, 25]: 6.3%; relative cell lysis (%) [3, 26]: 5.5%; relative cell lysis (%) [3, 27]: 16.4%; relative cell lysis (%) [3, 28]: 50.4%
AVDLSHFLK (Human immunodeficiency virus type 1) [Nef 84-9, reference compound]	–	–	–	–	–	–	–	–	–	–	–	–	–	–	–	–	–	–	–	–	relative cell lysis (%) [3, 24]: 25.3* %; relative cell lysis (%) [3, 25]: 68.6%; relative cell lysis (%) [3, 26]: 6.6%; relative cell lysis (%) [3, 27]: 5.8%; relative cell lysis (%) [3, 28]: 16.5%
DPNPQEVVL (Human immunodeficiency virus type 1) [Env77-85]	–	–	–	–	–	–	–	−3.6	1.7	1.5	2.5%	−0.1	0.2	0.0	0.5	−2.8	−0.3	−0.4	−1.1	–	–
IYQEPFKNLK [Pol496-505]	–	–	–	–	–	–	–	−2.8	4.9	4.6	8.00%	−2.9	−0.6	3.0	12.9	3.2	5.1	2.6	2.5	one of six patients	–
QIIEELIKK (Human immunodeficiency virus type 1) [Pol 675-9-5E]	five of seven	3.4* %	55.1	23.4	63.8	3.4	0.2	–	–	–	–	–	–	–	–	–	–	–	–	–	relative cell lysis (%) [1, 11]: 5.7%
QIIEKLIEK (Human immunodeficiency virus type 1) [Pol 675-9-5K8E]	two of six	−4.1%	21.7	10.3	4.5	5.6	−5.6	–	–	–	–	–	–	–	–	–	–	–	–	–	–
QIYAGIKVK [SF2-Pol424-9]	–	–	–	–	–	–	–	−1.7	−3.7	11.7	27.4** %	3.1	−0.2	2.0	2.3	−3.3	7.0	−0.2	4.9	one of six patients	killing of vaccinia-infected target cells by peptide-specific CTL clones (endogenous processing and presentation by HLA-A*1101) [4]: contain HLA-A*1101 restricted HIV-1 specific CTL epitopes
SVITQACPK [SF2-Env202-9]	–	–	–	–	–	–	–	–	–	–	–	–	–	–	–	–	–	–	–	–	killing of vaccinia-infected target cells by peptide-specific CTL clones (endogenous processing and presentation by HLA-A*1101) [4]: contain HLA-A*1101 restricted HIV-1 specific CTL epitopes
